Test results taken from patent US12291504B2 (University of Pittsburgh—Of the Commonwealth System of …, priority 2018, dated 2025).
Like-named read-outs stand apart in the source and are kept apart here. Blank lines part the entries; values can stand above or below the molecule they belong to.

Columns and labels:
SULT1A3 [1] = target: T1, SULT1A3 (Homo sapiens, UniProt P0DMM9); experiment: Equilibrium binding studies, SULT1A3 intrinsic fluorescence titration; set-up: Wild-type and mutant SULT1A3 coding regions were inserted into a pGEX-6P expression vector; N-His/GST/MBP triple-tag (N, cleaved yes); made in house; host or cells: E. coli BL21(DE3)
Experimental: 4-Tam binding affinities were determined in the absence and presence of saturating PAP. Binding was monitored via ligand-induced changes in SULT1A3 intrinsic florescence (λex=290 nm, λem=340 nm). Fluorescence intensities are normalized relative to [4-Tam]=0. Each data-point is the average of two independent determinations. Conditions: SULT (150 nM, active sites), PAP (0 or 0.50 mM), KPO4 (50 mM), pH 7.5, 25±2° C. The line through the data represents the least-squares best fit to a model that assumes a binding stoichiometry of one 4-Tam per subunit.
Equilibrium Binding Studies. In all cases, ligand binding to SULT1A3 was monitored via changes in the intrinsic fluorescence of the enzyme (λex=290 nm, λem=340 nm). Conditions: SULT (50 nM, active sites), KPO4 (50 mM), pH 7.5, 25±2° C. Titrations were performed in triplicate. Data were averaged and least-squares fit using a model that assumes a single binding site per monomer (29-31). Ligand concentration was varied from 0.10-40×Kd.
As is seen in Eq. 6, Kiso and kcat ratios approach equivalence as Kiso becomes >>1. To assess the extent to which this equivalence holds for SULT1A3, Kiso values were determined as described previously (29-33). In short—As nucleotide binds and the cap closes, a pore forms at the acceptor-binding site. The affinity of an acceptor that is too large to pass through the pore is diminished by the presence of nucleotide, which fosters cap closure. At saturating nucleotide, the apparent affinity, Kapp, of such acceptors for the fully cap-closed enzyme is given by Equation 7 (29-33), where Kd is the affinity for the cap-open (nucleotide-free) form of the enzyme. Kapp=Kd×(1+Kiso) (7) Kapp and Kd were obtained by fitting titrations that monitor changes in SULT1A3 intrinsic fluorescence as a function of the concentration of 4-hydroxytamoxifen, a large acceptor (29) (see, FIG. 2). Titrations were performed at 0 and saturating PAP (0.50 mM, 17×Kd).

SULT1A3 [2] = target: T1, SULT1A3; experiment: SULT1A3 inhibition studies, 1-HP initial-rate fluorescence assay; assay type: biochemical; set-up: Wild-type and mutant SULT1A3 coding regions were inserted into a pGEX-6P expression vector; N-His/GST/MBP triple-tag (N, cleaved yes); made in house; host or cells: E. coli BL21(DE3); inhibition: dose or concentration left out as unconfirmed; details: for inhibition of SULT1A3 (in words): Ki could not be determined
Experimental: The initial rates of SULT catalyzed 1-HP sulfonation are plotted as a function of inhibitor concentration, and are normalized relative to [inhibitor]=0. Enzyme activity was monitored by the sulfonation dependent change in 1-HP fluorescence (λex=325 nm, λem=370 nm). Less than 5% of the concentration-limiting substrate converted at the reaction endpoint was consumed during initial-rate measurements. Each point is the average of three independent determinations. Conditions: SULT (20 nM, active sites), PAPS (0.50 mM, 17×Km), 1-HP (5.0 μM, 61×Km), KPO4 (50 mM), pH 7.5, 25±2° C.
(§1) Initial-Rate Studies. Initial-rate parameters for the labeled or mutant SULT1A3 constructs were determined using a previously described 1-HP assay (25). Briefly, reactions were initiated by addition of PAPS (0.50 mM, 17×Km) to a solution containing enzyme (20 nM, active sites), 1-HP (2.0 μM, ˜24×Km), and KPO4 (50 mM), pH 7.5, 25±2° C. Reactions were monitored via fluorescence change associated with the conversion of 1-HP to 1-HP-S (λex=325 nm, λem=370 nm). Keq for the 1-HP sulfonation reaction is −250. Given the reaction conditions outlined above, ≥99% of 1-HP is converted to 1-HP-S, and ˜0.4% of PAPS is converted to PAP at equilibrium. […] Reaction progress curves were analyzed to obtain initial-rate parameters as described previously (26,27).
(§2) Inhibition studies. Inhibition parameters were determined under conditions identical to those described above (see, Initial-Rate Studies) except that [1-HP] was increased to 5.0 μM (˜61×Km) and inhibitor concentration was varied between 0.20-20×Ki. Ki was obtained using a least-squares fit to the following partial inhibition equation (25,28): v=kcat·(Ki+(1/kcat inh)·[I])/(Ki+[I]), where kcat inh is enzyme turnover at saturating substrates and allosteric inhibitor.
as §1, with “(47).” for “(25).”, “˜250.” for “−250.”, “(48,49).” for “(26,27).”
as §2, with “(47,50): V/Vax=(Ki+α·[I])/(Ki+[I]),” for “(25,28): v=kcat·(Ki+(1/kcat inh)·[I])/(Ki+[I]),”, “α” for “kcat inh”, “is percentage of” for “is”, “turnover remaining” for “turnover”

Mouse (1D1) = Mouse (1D1) (Mus musculus, UniProt Q3UZZ6); experiment: Inhibition of SULT1A3 homologues in different species: Mouse; assay type: biochemical
Experimental: (§3) Compounds 12, 23 and 25 were also tested for Inhibition of SULT1A3 in different species.
(§4) Inhibition of SULT1A3 Homologues in Different Species. SULT1A3 is only expressed in humans and higher primates. SULT1D1 is the isoform expressed in dogs and rodents that sulfonates neurotransmitters and is most similar to SULT1A3. Three synthesized allosteres (12, 23, and 25) were tested against both 1A3 and 1D1 from different species in order to explore testing in animal models. […] Mice have been engineered such that their SULT1A1/2 enzymes have been knocked out and replaced with the human versions of those isoforms.

SULT1E1 = target: T2, SULT1E1 (Homo sapiens, UniProt P49888); experiment: SULT1E1 inhibition test; assay type: biochemical; details: at 50 uM
T2 sequence (P49888 1-294): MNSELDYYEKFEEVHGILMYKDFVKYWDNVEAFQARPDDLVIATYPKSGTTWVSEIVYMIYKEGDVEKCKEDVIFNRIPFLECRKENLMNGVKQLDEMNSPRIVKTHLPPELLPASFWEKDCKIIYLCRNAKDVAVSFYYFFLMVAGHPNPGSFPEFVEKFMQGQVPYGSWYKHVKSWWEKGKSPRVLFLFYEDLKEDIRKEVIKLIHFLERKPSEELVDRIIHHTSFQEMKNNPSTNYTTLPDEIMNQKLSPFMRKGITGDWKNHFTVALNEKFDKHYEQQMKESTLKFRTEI

Rhesus Macaque (1A3) = Rhesus Macaque (1A3) (Macaca mulatta, UniProt A0A5F7ZQH3); experiment: Inhibition of SULT1A3 homologues in different species: Rhesus Macaque; assay type: biochemical
Experimental: as §3, §4

SULT2A1 = target: T3, SULT2A1 (Homo sapiens, UniProt Q06520); experiment: SULT2A1 inhibition test; assay type: biochemical; details: at 50 uM
T3 sequence (Q06520 1-285): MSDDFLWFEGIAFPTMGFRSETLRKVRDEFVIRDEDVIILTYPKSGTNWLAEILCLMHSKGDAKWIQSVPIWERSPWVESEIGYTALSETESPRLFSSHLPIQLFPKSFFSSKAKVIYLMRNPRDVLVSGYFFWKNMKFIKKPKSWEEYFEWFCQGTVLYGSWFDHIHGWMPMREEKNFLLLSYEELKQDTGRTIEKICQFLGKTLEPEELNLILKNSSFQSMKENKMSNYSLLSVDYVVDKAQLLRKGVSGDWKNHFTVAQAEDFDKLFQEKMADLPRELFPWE

Rat (1D1) = target: T4, Rat (1D1) (Rattus norvegicus, UniProt G3V9R3); experiment: Inhibition of SULT1A3 homologues in different species: Rat; assay type: biochemical
T4 sequence (G3V9R3 1-295): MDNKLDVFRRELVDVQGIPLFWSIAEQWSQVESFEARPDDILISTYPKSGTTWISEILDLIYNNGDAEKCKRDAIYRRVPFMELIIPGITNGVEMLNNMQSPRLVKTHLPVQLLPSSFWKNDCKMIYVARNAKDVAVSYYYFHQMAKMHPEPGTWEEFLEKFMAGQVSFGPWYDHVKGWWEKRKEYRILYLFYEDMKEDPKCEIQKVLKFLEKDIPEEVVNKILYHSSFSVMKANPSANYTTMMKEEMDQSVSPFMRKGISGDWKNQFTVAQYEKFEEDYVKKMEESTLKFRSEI
Experimental: as §3, §4

Green Monkey (1A3) = Green Monkey (1A3) (Chlorocebus sabaeus, UniProt Z9LO20H8W3); experiment: Inhibition of SULT1A3 homologues in different species: Green Monkey; assay type: biochemical
Experimental: as §3, §4

Dog (1D1) = Dog (1D1) (Canis lupus familiaris, UniProt A0A8I3RXJ1); experiment: Inhibition of SULT1A3 homologues in different species: Dog; assay type: biochemical
Experimental: as §4, with “Compounds 12, 23 and 25 were also tested for Inhibition of SULT1A3 in different species. Inhibition” for “Inhibition”

SULT1A1 = SULT1A1 (Homo sapiens, UniProt P50225); experiment: SULT1A1 inhibition, 1-HP initial-rate assay; assay type: biochemical; details: ND = inhibition was not detected at 30 μM compound, parentheses one standard error
Experimental: as §2
as §2, with “(47,50): V/Vax=(Ki+α·[I])/(Ki+[I]),” for “(25,28): v=kcat·(Ki+(1/kcat inh)·[I])/(Ki+[I]),”, “α” for “kcat inh”, “is percentage of” for “is”, “turnover remaining” for “turnover”

[3] = read-out: Kd, determined by fluorescence titration

T1 sequence (P0DMM9 whole entry): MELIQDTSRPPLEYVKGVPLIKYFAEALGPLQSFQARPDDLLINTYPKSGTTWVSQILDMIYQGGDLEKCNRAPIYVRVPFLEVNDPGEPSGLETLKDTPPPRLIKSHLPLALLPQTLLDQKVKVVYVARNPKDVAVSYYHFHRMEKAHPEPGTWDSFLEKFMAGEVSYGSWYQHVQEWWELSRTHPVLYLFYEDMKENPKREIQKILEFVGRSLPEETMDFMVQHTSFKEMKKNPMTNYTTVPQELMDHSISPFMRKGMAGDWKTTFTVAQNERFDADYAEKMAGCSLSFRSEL
Chain of Green Monkey (1A3) (Z9LO20H8W3 1-295): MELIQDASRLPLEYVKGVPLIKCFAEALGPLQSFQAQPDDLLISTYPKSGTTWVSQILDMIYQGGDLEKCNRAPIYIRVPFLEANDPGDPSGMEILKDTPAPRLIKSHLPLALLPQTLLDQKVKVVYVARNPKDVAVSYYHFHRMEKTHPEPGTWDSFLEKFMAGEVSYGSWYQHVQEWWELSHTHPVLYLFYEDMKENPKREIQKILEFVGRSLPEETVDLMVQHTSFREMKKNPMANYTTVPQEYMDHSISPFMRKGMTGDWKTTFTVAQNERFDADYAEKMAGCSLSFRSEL
Chain of Dog (1D1) (A0A8I3RXJ1 entry or part of it): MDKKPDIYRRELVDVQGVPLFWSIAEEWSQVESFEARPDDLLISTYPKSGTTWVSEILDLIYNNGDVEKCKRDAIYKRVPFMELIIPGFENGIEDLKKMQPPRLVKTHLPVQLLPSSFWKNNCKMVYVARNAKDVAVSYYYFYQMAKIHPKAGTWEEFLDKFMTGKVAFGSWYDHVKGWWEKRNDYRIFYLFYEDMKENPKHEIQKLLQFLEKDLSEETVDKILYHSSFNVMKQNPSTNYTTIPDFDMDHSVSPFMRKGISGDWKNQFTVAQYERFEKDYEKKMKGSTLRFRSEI
Chain of Mouse (1D1) (Q3UZZ6 whole entry): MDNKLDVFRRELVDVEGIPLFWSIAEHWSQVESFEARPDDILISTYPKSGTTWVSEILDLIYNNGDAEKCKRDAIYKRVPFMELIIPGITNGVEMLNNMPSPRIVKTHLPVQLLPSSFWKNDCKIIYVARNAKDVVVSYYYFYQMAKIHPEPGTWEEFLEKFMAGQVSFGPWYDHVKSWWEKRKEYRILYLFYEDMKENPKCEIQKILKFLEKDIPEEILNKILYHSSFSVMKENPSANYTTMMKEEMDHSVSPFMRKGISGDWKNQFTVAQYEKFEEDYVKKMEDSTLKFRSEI
Chain of Rhesus Macaque (1A3) (A0A5F7ZQH3 1-295): as the sequence (Z9LO20H8W3 1-295) above, with A7T, V15M, C23Y, R230K, Y247F, A278E counted along it
Chain of SULT1A1 (P50225 whole entry): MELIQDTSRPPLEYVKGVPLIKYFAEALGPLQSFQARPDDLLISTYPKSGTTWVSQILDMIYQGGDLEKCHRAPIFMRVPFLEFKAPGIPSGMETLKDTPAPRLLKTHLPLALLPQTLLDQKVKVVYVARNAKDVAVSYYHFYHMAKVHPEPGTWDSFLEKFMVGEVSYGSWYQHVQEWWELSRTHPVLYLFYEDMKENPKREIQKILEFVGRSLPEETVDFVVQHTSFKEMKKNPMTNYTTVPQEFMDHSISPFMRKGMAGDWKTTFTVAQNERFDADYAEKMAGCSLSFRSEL

Kd (SULT1A3 [1]; saturating PAP 0.50 mM, SULT 150 nM, read-out: Kd (+PAP)): 5400 nM
Molecule: 4-Hydroxytamoxifen [Compound 4-Tam, reference compound]

Kd (SULT1A3 [1]; [3]): 160 nM | inhibition of SULT1A3 (in words) (SULT1A3 [2]): do not inhibit
Molecule: CC(C)c1ccc2cc(CO)ccc2n1 [Compound 1, (2-Isopropylquinolin-6-yl)methanol]

Kd (SULT1A3 [1]; read-out: Kd, affinity of 1-HP-S for SULT1A3): 240000 ± 30000 nM
Molecule: O=S(=O)(O)Oc1ccc2ccc3cccc4ccc1c2c34 [Compound 1-HP-S, reference compound]

Kd (SULT1A3 [1]; [3]): 87 nM | inhibition of SULT1A3 (in words) (SULT1A3 [2]): do not inhibit
Molecule: CC(C)CCc1ccc2cc(CO)ccc2n1 [Compound 2]

Mouse (1D1) % inh (Mouse (1D1)): 92 (3) % | Ki (Mouse (1D1); parentheses one standard error): 65 nM | inhibition of SULT1E1 (SULT1E1): no inhibition was detected | affinity for SULT1A3 (in words) (SULT1A3 [2]): low nanomolar affinity | Ki (SULT1A3 [2]; ND = inhibition was not detected at 30 μM compound, parentheses one standard error, read-out: SULT1A3 Ki/μM): 0.0092 µM | Human (1A3) % inh (SULT1A3 [2]; parentheses one standard error): 97 (2) % | inhibition (SULT1A3 [2]; parentheses one standard error, read-out: SULT1A3 Enzyme Inhibition at Saturation/%): 96% | Ki (SULT1A3 [2]; standard error in neighbouring cell, read-out: Human (1A3) Ki): 0.0096 µM | inhibition at saturation (SULT1A3 [2]; text b218): almost complete inhibition | Rhesus Macaque (1A3) % inh (Rhesus Macaque (1A3)): 97 (2) % | Ki (Rhesus Macaque (1A3); parentheses one standard error): 12 nM | inhibition of SULT2A1 (SULT2A1): no inhibition was detected | Rat (1D1) % inh (Rat (1D1)): 37 (4) % | Ki (Rat (1D1); parentheses one standard error): 270 nM | Green Monkey (1A3) % inh (Green Monkey (1A3)): 91 (4) % | Ki (Green Monkey (1A3); parentheses one standard error): 72 nM | Dog (1D1) % inh (Dog (1D1)): 81 (4) % | Ki (Dog (1D1); standard error in neighbouring cell): 117 nM | Ki (SULT1A1): 3.1 µM | inhibition (SULT1A1; read-out: SULT1A1 Enzyme Inhibition at Saturation/%): 61%
Molecule: CC(C)Cc1ccc2cc(/C=C/C(N)=O)cnc2n1 [Compound 23, (E)-3-(7-Isobutylnaphthyridin-3-yl)acrylamide]
